In US8575163B2, “Pyrrolopyridinylpyrimidin-2-ylamine derivatives” (Merck Patent GmbH, priority 2009, dated 2013):

Each compound was assayed against T1, PDK1 (Homo sapiens, UniProt O15530) (assay: Test for the inhibition of PDK1 (flashplate, 33P-ATP)). Details: His6-PDK1 3.4 nM, 4 μM ATP, 30° C., 60 min.
T1 construct: His6 (N)
T1 sequence (O15530 51-556 limits assumed): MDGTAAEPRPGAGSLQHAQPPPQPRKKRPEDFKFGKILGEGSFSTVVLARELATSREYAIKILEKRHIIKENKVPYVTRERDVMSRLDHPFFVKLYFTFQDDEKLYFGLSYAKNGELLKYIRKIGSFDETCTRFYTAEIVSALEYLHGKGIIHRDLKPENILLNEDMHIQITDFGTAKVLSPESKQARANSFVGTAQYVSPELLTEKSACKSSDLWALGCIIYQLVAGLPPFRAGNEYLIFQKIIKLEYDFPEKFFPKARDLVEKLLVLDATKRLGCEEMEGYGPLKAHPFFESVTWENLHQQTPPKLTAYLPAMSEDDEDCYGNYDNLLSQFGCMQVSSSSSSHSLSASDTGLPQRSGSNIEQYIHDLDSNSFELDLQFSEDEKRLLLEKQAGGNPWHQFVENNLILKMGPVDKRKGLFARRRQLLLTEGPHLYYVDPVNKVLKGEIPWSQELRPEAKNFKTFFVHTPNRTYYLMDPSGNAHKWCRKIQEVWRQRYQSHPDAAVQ
Format: biochemical
Protocol: The experimental batches are carried out in a flashplate system with 384 wells/microtitration plate.
In each case, the PDK1 sample His6-PDK1(1-50)(3.4 nM), the PDK1 substrate biotin-bA-bA-[…] (400 nM), 4 μM ATP (with 0.2 μCi of ^33 P-ATP/well) and the test substance in 50 μl of conventional experimental solution per well are incubated at 30° C. for 60 min. The test substances are employed in corresponding concentrations (if desired in a dilution series). The control is carried out without test substance. The reaction is stopped using standard methods and washed. The activity of the kinase is measured via the incorporated radioactivity in top count. In order to determine the non-specific kinase reaction (blank value), the experimental batches are carried out in the presence of 100 nM staurosporin.
The radioactivity (decompositions per minute) of the blank value (no use of test substance in the presence of staurosporin) is subtracted from all other radioactivity values. The controls (kinase activity without test substance) are set equal to 100 percent and all other radioactivity values (after subtracting the blank value) are expressed set in relation thereto (for example in % of the control).
[formula] IC50 values (50% inhibition) are determined with the aid of statistics programmes, such as, for example, RS1.

Row | Compound | IC50 [nM]
1 | CC(O)(c1ccccc1)c1cc(-c2c[nH]c3ncc(-c4cnn(CCO)c4)cc23)nc(N)n1 (single isomer, unassigned) [A97, 1-(2-amino-6-{5-[1-(2-hydroxyethyl)-1H-pyrazol-4-yl]-1H-pyrrolo[2,3-b]-pyridin-3-yl}pyrimidin-4-yl)-1-phenylethanol] | 38
2 | CCC(O)(c1ccncc1)c1cc(-c2c[nH]c3ncc(-c4cnn(C)c4)cc23)nc(N)n1 (single isomer, unassigned) [A20, 1-{2-amino-6-[5-(1-methyl-1H-pyrazol-4-yl)-1H-pyrrolo[2,3-b]pyridin-3-yl]-pyrimidin-4-yl}-1-pyridin-4-ylpropan-1-ol] | 2.2
3 | CC(O)(c1ccccc1)c1cc(-c2c[nH]c3ncc(-c4cncnc4)cc23)nc(N)n1 (stereo not drawn) [A100, 1-[2-amino-6-(5-pyrimidin-5-yl-1H-pyrrolo[2,3-b]pyridin-3-yl)pyrimidin-4-yl]-1-phenylethanol] | 1700
4 | CC(O)(c1ccccc1)c1cc(-c2c[nH]c3ncc(-c4cnn(CCC(=O)N5CCOCC5)c4)cc23)nc(N)n1 (stereo not drawn) [A68, 3-(4-{3-[2-amino-6-(1-hydroxy-1-phenylethyl)pyrimidin-4-yl]-1H-pyrrolo-[2,3-b]pyridin-5-yl}pyrazol-1-yl)-1-morpholin-4-ylpropan-1-one] | 74
5 | CC(C)n1cc(-c2cnc3[nH]cc(-c4cc(C(C)(O)C(C)C)nc(N)n4)c3c2)cn1 (stereo not drawn) [A88, 2-{2-amino-6-[5-(1-isopropyl-1H-pyrazol-4-yl)-1H-pyrrolo[2,3-b]pyridin-3-yl]-pyrimidin-4-yl}-3-methylbutan-2-ol] | 28
6 | CNc1nc(-c2c[nH]c3ncc(-c4cnn(CCO)c4)cc23)cc(C(C)(O)c2ccccc2)n1 (stereo not drawn) [A95, 1-(6-{5-[1-(2-hydroxyethyl)-1H-pyrazol-4-yl]-1H-pyrrolo[2,3-b]pyridin-3-yl}-2-methylaminopyrimidin-4-yl)-1-phenylethanol] | 18
7 | CCC(O)(c1ccncc1)c1cc(-c2c[nH]c3ncc(-c4cn[nH]c4)cc23)nc(N)n1 (single isomer, unassigned) [A43, 1-{2-amino-6-[5-(1H-pyrazol-4-yl)-1H-pyrrolo[2,3-b]pyridin-3-yl]pyrimidin-4-yl}-1-pyridin-4-ylpropan-1-ol] | 1.6
8 | CCOC(=O)CCn1cc(-c2cnc3[nH]cc(-c4cc(C(C)(OCOC)c5ccccc5)nc(N)n4)c3c2)cn1 (stereo not drawn) [A78, ethyl 3-(4-{3-[2-amino-6-(1-methoxymethoxy-1-phenylethyl)pyrimidin-4-yl]-1H-pyrrolo[2,3-b]pyridin-5-yl}pyrazol-1-yl)propionate] | 61

More lines, now with the values ahead:

Row | IC50 [nM] | Compound
9 | 7.8 | Cn1cc(-c2cnc3[nH]cc(-c4cc(C(C)(O)c5ccnnc5)nc(N)n4)c3c2)cn1 (stereo not drawn) [A109, 1-{2-amino-6-[5-(1-methyl-1H-pyrazol-4-yl)-1H-pyrrolo[2,3-b]pyridin-3-yl]-pyrimidin-4-yl}-1-pyridazin-4-ylethanol]
10 | 49 | COCOC(C)(c1ccnc(C)c1)c1cc(-c2c[nH]c3ncc(-c4cnn(C)c4)cc23)nc(N)n1 (stereo not drawn) [A108, 4-[1-methoxymethoxy-1-(2-methylpyridin-4-yl)ethyl]-6-[5-(1-methyl-1H-pyrazol-4-yl)-1H-pyrrolo[2,3-b]pyridin-3-yl]pyrimidin-2-ylamine]
11 | 25 | CCC(OCOC)(c1cc(-c2c[nH]c3ncc(-c4cnn(C)c4)cc23)nc(N)n1)c1ccncc1F (stereo not drawn) [A37, 4-[1-(3-fluoropyridin-4-yl)-1-methoxymethoxypropyl]-6-[5-(1-methyl-1H-pyrazol-4-yl)-1H-pyrrolo[2,3-b]pyridin-3-yl]pyrimidin-2-ylamine]
12 | 130 | COCOC(C)(c1cccc(C)c1)c1cc(-c2c[nH]c3ncc(-c4cnn(C)c4)cc23)nc(N)n1 (stereo not drawn) [A23, 4-(1-methoxymethoxy-1-m-tolylethyl)-6-[5-(1-methyl-1H-pyrazol-4-yl)-1H-pyrrolo[2,3-b]pyridin-3-yl]pyrimidin-2-ylamine]
